Results on 23 compounds are retold here after patent US10028992B2, “Methods of treating muscular dystrophy” (BOARD OF REGENTS OF THE NEVADA SYSTEM OF HIGHER EDUCATION …, priority 2012, dated 2018).

The assay relates to α7 integrin promoter. In words: muscle cell-based assay: α7βgal+/− myoblasts/myotubes, LacZ reporter, β-galactosidase cleavage of FDG. Set-up: species or system mouse; Results in α7+/− β-galactosidase assay: scale not given here. Particulars: Myoblasts. The procedure, abridged: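 Primary α7βgal+/− mouse myoblasts (LacZ knocked into α7 integrin exon 1, promoter retained), differentiated; promoter activity read as β-galactosidase conversion of non-fluorescent FDG to fluorescein. Hits followed by dose-response, western analysis and myostatin counterscreen.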

Turning to `COc1ccccc1C(=O)OCc1ccc2sc(C)nc2c1` [drawing 586], the “Results in α7+/− β-galactosidase assay” value (0.5 uM) turned out to be 0.191; the “Results in α7+/− β-galactosidase assay” value (1 uM) is −0.07182; the “Results in α7+/− β-galactosidase assay” value (5 uM) came to 0.1329; the “Results in α7+/− β-galactosidase assay” value (10 uM) was 0.00833; the “Results in α7+/− β-galactosidase assay” value (20 uM) is 0.1184; the “Results in α7+/− β-galactosidase assay” value (40 uM) came to 0.01583.

Turning to `NC(=O)COc1ccc(C(=O)/C=C2\C(=O)Nc3ccccc32)cc1` [drawing 587], the “Results in α7+/− β-galactosidase assay” value reads like this: (0.5 uM) 0.211; (1 uM) −0.06344; (5 uM) −0.1959; (10 uM) −0.647; (20 uM) −0.8153; (40 uM) −0.9741.

In the case of `CC1(C)Cc2ccccc2-c2nc3n(c(=O)c21)CCS3` [drawing 588], the “Results in α7+/− β-galactosidase assay” value was 0.2141 (0.5 uM); 0.0159 (1 uM); 0.02034 (5 uM); 0.02377 (10 uM); −0.2051 (20 uM); −0.4207 (40 uM).

Take `CN(/C(=N/S(=O)(=O)c1cccs1)c1ccccc1)c1ccccc1` [drawing 589]: the “Results in α7+/− β-galactosidase assay” value reads like this: (0.5 uM) 0.2361; (1 uM) −0.03677; (5 uM) −0.05696; (10 uM) −0.01934; (20 uM) −0.0583; (40 uM) −0.2263.

For the compound `CSc1ccc(S(=O)(=O)NCc2ccccc2)cc1` [drawing 590], the “Results in α7+/− β-galactosidase assay” value is recorded as −0.1174 (0.5 uM); −0.07696 (1 uM); 0.06657 (5 uM); 0.6252 (10 uM); 0.01406 (20 uM); −0.1992 (40 uM).

Turning to `O=C1Nc2ccccc2/C1=C/c1ccccc1F` [drawing 591], the “Results in α7+/− β-galactosidase assay” value reads like this: (0.5 uM) −0.0677; (1 uM) −0.05193; (5 uM) 0.009111; (10 uM) 0.1004; (20 uM) −0.4184; (40 uM) −0.7444.

As to `CN1C(=O)/C(=C(/C#N)c2nc3ccccc3[nH]2)c2ccccc21` [drawing 592], the “Results in α7+/− β-galactosidase assay” value (0.5 uM) is −0.1972; the “Results in α7+/− β-galactosidase assay” value (1 uM) is given as −0.1961; the “Results in α7+/− β-galactosidase assay” value (5 uM) was −0.2667; the “Results in α7+/− β-galactosidase assay” value (10 uM) stood at 0.04652; the “Results in α7+/− β-galactosidase assay” value (20 uM) is −0.456; the “Results in α7+/− β-galactosidase assay” value (40 uM) is given as −0.5499.

On to `CC1CC(C)(C)N=C(S)N1CC(=O)N(C)Cc1ccccc1` (stereo not drawn) [drawing 593], for which the “Results in α7+/− β-galactosidase assay” value was −0.00967 (0.5 uM); 0.04937 (1 uM); 0.1163 (5 uM); 0.244 (10 uM); 0.03336 (20 uM); 0.02068 (40 uM).

Turning to `Cc1noc(C)c1COc1ccc(C(=O)NCCc2ccccn2)cc1` [drawing 594], the “Results in α7+/− β-galactosidase assay” value runs as follows: (0.5 uM) −0.1523; (1 uM) −0.1552; (5 uM) −0.01736; (10 uM) 0.1691; (20 uM) −0.127; (40 uM) −0.3226.

For `COCCSc1ccccc1C(=O)Nc1cc(C)cc(C)c1` [drawing 595], the “Results in α7+/− β-galactosidase assay” value is, setting by setting: (0.5 uM) −0.06029; (1 uM) −0.1236; (5 uM) 0.04359; (10 uM) 0.2482; (20 uM) −0.09845; (40 uM) −0.1003.

On to `CC(=O)Nc1ccc(NC(=O)c2cc(=O)c3cc(C)cc(C)c3o2)cc1` [drawing 596], for which the “Results in α7+/− β-galactosidase assay” value was −0.1173 (0.5 uM); −0.07551 (1 uM); −0.4622 (5 uM); 0.1321 (10 uM); −0.5173 (20 uM); −0.5206 (40 uM).

On to `Cc1cccc(Sc2nc(-c3ccccc3)ccc2C#N)c1` [drawing 598], for which the “Results in α7+/− β-galactosidase assay” value reads like this: (0.5 uM) −0.2243; (1 uM) −0.2124; (5 uM) 0.4228; (10 uM) 0.1696; (20 uM) −0.08803; (40 uM) −0.1146.

Regarding `CCC(C)NC(=O)CSc1nnc(COc2ccc(Br)cc2)o1` (stereo not drawn) [drawing 599], the “Results in α7+/− β-galactosidase assay” value is, setting by setting: (0.5 uM) 0.03703; (1 uM) −0.07; (5 uM) −0.1163; (10 uM) 0.4886; (20 uM) −0.0797; (40 uM) −0.4672.

With `Cc1ccc(N2C(=O)C3NN=C(C(=O)OCc4ccccc4)C3C2=O)cc1` (stereo not drawn) [drawing 600], the “Results in α7+/− β-galactosidase assay” value runs as follows: (0.5 uM) 0.05483; (1 uM) −0.02931; (5 uM) −0.09981; (10 uM) −0.01836; (20 uM) 0.1359; (40 uM) −0.03893.

Consider `Cc1cc([N+](=O)[O-])ccc1NC(=O)C(C)N1CCN(c2ccccn2)CC1` (stereo not drawn) [drawing 601], for which the “Results in α7+/− β-galactosidase assay” value is 0.08805 (0.5 uM); 0.0582 (1 uM); −0.01841 (5 uM); −0.03065 (10 uM); −0.0419 (20 uM); −0.274 (40 uM).

In the case of `CCc1nc(/C=C2\C(=O)Nc3ccccc32)c[nH]1` [drawing 602], the “Results in α7+/− β-galactosidase assay” value by setting is: (0.5 uM) 0.2737; (1 uM) 0.07781; (5 uM) 0.08036; (10 uM) 0.1565; (20 uM) 0.1925; (40 uM) −0.2038.

`CCOC(=O)C1(Cc2cccc(Cl)c2)CCCN(C(=O)CCSC)C1` (stereo not drawn) [drawing 604]: the “Results in α7+/− β-galactosidase assay” value is recorded as 0.08932 (0.5 uM); −0.00471 (1 uM); −0.04484 (5 uM); −0.02503 (10 uM); −0.06029 (20 uM); −0.2262 (40 uM).

As for `Cc1cccc2c(/N=N/c3ccc(S(=O)(=O)Nc4ccc(Cl)cc4)cc3[N+](=O)[O-])c(O)[nH]c12` [drawing 605], the “Results in α7+/− β-galactosidase assay” value (0.5 uM) is on record as −0.02621; the “Results in α7+/− β-galactosidase assay” value (1 uM) is −0.05717; the “Results in α7+/− β-galactosidase assay” value (5 uM) is recorded as −0.2201; the “Results in α7+/− β-galactosidase assay” value (10 uM) is −0.3043; the “Results in α7+/− β-galactosidase assay” value (20 uM) was −0.4039; the “Results in α7+/− β-galactosidase assay” value (40 uM) is recorded as −0.5304.

As to `CC(C)c1ccc(OC(=O)c2cccc(S(=O)(=O)N3CCN(C)CC3)c2)cc1` [drawing 606], the “Results in α7+/− β-galactosidase assay” value by setting is: (0.5 uM) −0.02855; (1 uM) −0.1053; (5 uM) 0.3741; (10 uM) −0.02381; (20 uM) 0.03734; (40 uM) −0.08446.

Turning to `CC(C)c1ccc(NC(=O)CN2C(=O)c3ccccc3S2(=O)=O)cc1` [drawing 607], the “Results in α7+/− β-galactosidase assay” value (0.5 uM) is reported as −0.1297; the “Results in α7+/− β-galactosidase assay” value (1 uM) is given as −0.1704; the “Results in α7+/− β-galactosidase assay” value (5 uM) is 0.367; the “Results in α7+/− β-galactosidase assay” value (10 uM) is recorded as −0.05458; the “Results in α7+/− β-galactosidase assay” value (20 uM) is reported as −0.03658; the “Results in α7+/− β-galactosidase assay” value (40 uM) is reported as −0.09806.

For the compound `NC(=O)c1sc2nc3c(cc2c1N)CCC3` [drawing 608], the “Results in α7+/− β-galactosidase assay” value came out at 0.003482 (0.5 uM); 0.04559 (1 uM); 0.02429 (5 uM); 0.07579 (10 uM); 0.3169 (20 uM); 0.4925 (40 uM).

Turning to `O=C(Nc1ccccc1OC(=O)c1ccc(Cl)cc1)c1ccc(Cl)cc1` [drawing 609], the “Results in α7+/− β-galactosidase assay” value is 0.03104 (0.5 uM); 0.01493 (1 uM); −0.04769 (5 uM); −0.1879 (10 uM); 0.6323 (20 uM); −0.3765 (40 uM).

As for `CC(NC(=O)c1ccc(C(C)(C)C)cc1)C(c1cccs1)N1CCOCC1` (stereo not drawn) [drawing 610], the “Results in α7+/− β-galactosidase assay” value is, setting by setting: (0.5 uM) 0.08931; (1 uM) 0.1802; (5 uM) 0.07478; (10 uM) −0.02239; (20 uM) −0.1131; (40 uM) −0.1382.
